Source: ChEMBL document CHEMBL1157539, “Thousands of chemical starting points for antimalarial lead identification” (Nature, 2010)

Test system: Plasmodium falciparum
Experiment: GSK_TCMDC: Inhibition of Plasmodium falciparum 3D7 in whole erythrocytes, using parasite LDH activity as an index of growth.
Assay type: functional, organism-based
Details: Plasmodium falciparum, 3D7

SMILES | XC50 [nM]
CCN1CCC(N(CCCCCCCCc2ccc(C(F)(F)F)cc2)C(=O)Cn2c(CCc3cccc(F)c3F)cc(=O)c3ccccc32)CC1 | 1200
O=C(NCCCCCN1CCC(c2ccc(O)cc2)CC1)c1ccc(-c2ccccc2)cc1 | 929
CN1CCN(Cc2nc(-c3ccc4c(Nc5ccc(F)c(O)c5)ccnc4c3)cs2)CC1 | 171
COc1ccc(-c2cccc(NC(=O)c3ccc(C#N)cc3)c2)cc1CNC(C)C | 808
Nc1ccc2nc(C=Cc3ccc(Cl)cc3)[nH]c2c1 | 941
N#Cc1cccc(CN2CCCN(Cc3ccc(C(=O)Nc4ccc(Cl)cc4)cc3)CC2)c1 | 882
CC(=Nc1ccc(Cl)c(Cl)c1)N(C)C | 540
Nc1nccc2ccc(-c3cccnc3)cc12 | 419
CC(=O)c1cc(N2CCOCC2)ccc1N | 913
CC(=O)N(C)C1CCN(Cc2cccc(-c3ccc(-c4nc5cc(F)ccc5[nH]4)cc3)c2)C1 (stereo not drawn) | 957
CC(C)[C@H](NC(=O)c1ccc(O)c(-c2ccc(Cl)c(Cl)c2)c1)C(=O)NCCN1CCOCC1 | 911
CC(=O)Nc1ncc(C(=O)Nc2cccc(-c3ccc(-c4nc5cccc(C)c5[nH]4)cc3)c2)s1 | 643
COc1cccc(-c2ccc3ccnc(N)c3c2)c1 | 408
CCCCC([C@@H](Cc1ccc2ccccc2c1)C(=O)N[C@H](C(=O)NC)C(C)(C)C)N(O)C=O (stereo partly drawn) | 142
COc1ccc(C)c(Nc2ccnc(Nc3cccc(-c4nc5ccccc5[nH]4)c3)n2)c1 | 716
CC(C)(C)c1cc(C(=O)Nc2cccnc2)cc(C(=O)Nc2cccnc2)c1 | 761
Cc1cc(=NN=CC=Cc2ccccc2)c2ccc(F)cc2[nH]1 | 590
CCOC(=O)C(NC(=O)c1ccc([N+](=O)[O-])o1)C(C)C (stereo not drawn) | 1060
CCC(NC[C@@H](O)[C@H](Cc1ccccc1)NC(=O)c1cc(C2CCCC2)cc(N2CCCC2=O)c1)c1cccc(Cl)c1 (stereo partly drawn) | 35.2
O=C(/C=C/c1ccc(Cl)c(Cl)c1)NCCCCCN1CCC(C(=O)Nc2ccc(Cl)cc2)CC1 | 776
CC(Cc1ccc(CN(CC(N)=O)Cc2ccc(CC(C)NCCc3cccc(Cl)c3)cc2)cc1)NCCc1cccc(Cl)c1 (stereo not drawn) | 665
N#Cc1ccc(-c2cnc3ccc(NCc4ccc(S(N)(=O)=O)cc4)nn23)cc1 | 785
COC(=O)c1c(NC(=O)c2cccc(C(F)(F)F)c2)sc2c1CCN(Cc1ccccc1)C2 | 1340
CC(=O)c1ccc2c(c1)C(NC(=O)c1cccc(Cl)c1Cl)C(CO)C(C)(C)O2 (stereo not drawn) | 687
COc1ccc(CNC2CCN(C)CC2)cc1-c1ccc(S(=O)(=O)NC2CCC2)c(F)c1 | 840

SMILES | XC50 [nM]
CC(=O)Oc1cc(C(=O)Nc2ccc(Cl)cc2)cc2ccccc12 | 856
COc1ccc2ccccc2c1C=NNc1ccnc2cc(Cl)ccc12 | 615
COc1ccc(-c2ccc(NC(=O)c3cccc(Cl)c3)cc2)cc1CN1CCC(O)CC1 | 712
COc1ccc(CCn2c(C3CCCCC3)nc3oc4ccccc4c(=O)c3c2=O)cc1 | 952
CC1(C)NC(N)=NC(=N)N1OCc1ccc2ccccc2c1CON1C(=N)N=C(N)NC1(C)C | 663
COc1ccc(Cn2c(SCc3ccc(C)cc3)nc3cc(OC)c(OC)cc3c2=N)cc1Cl | 977
Cc1c(C(=O)NCc2ccncc2)sc2nc(-c3cccc([N+](=O)[O-])c3)cn12 | 913
NC(=O)c1cccc(-n2ccc3cc(CNC4Cc5ccccc5C4)ccc32)c1 | 1130
Oc1ccc2[nH]cc(C3=CCN(Cc4ccccc4)CC3)c2c1 | 983
CN1CCN(c2ccc(CNc3ccc4ncc(-c5ccc(OC(F)(F)F)cc5)n4n3)cc2)CC1 | 834
O=C(/C=C/c1ccc(-c2nc3ccc(Cl)cc3[nH]2)cc1)NC1CCN(Cc2ccccc2)CC1 | 610
O=S(=O)(NCCN1CCCC1)c1ccc(-c2ccc(CNCc3ccc(F)cc3)cc2)cc1 | 794
O=C(Nc1cccc(-c2cc(-c3c(Cl)cccc3Cl)no2)c1)c1cnc2ccccc2c1 | 1100
CCNc1cc(C(=O)N[C@@H](Cc2ccccc2)[C@H](O)CNC2CCC(F)(F)CC2)c(F)c(N2CCCCS2(=O)=O)c1 | 212
Nc1nc(N)c2c(ccn2Cc2cc3c(cc2Cl)OCO3)n1 | 765
Cn1c(C2CC3CCC(C2)N3CC2CCC(NC(=O)/C=C/c3ccc(Cl)c(Cl)c3)CC2)nc2ccccc21 (stereo not drawn) | 563
Cc1ccc(NC(=O)c2ccc(CN3CCCN(Cc4cccc(O)c4)CC3)cc2)cc1C | 864
CCCc1ccc2c(c1O)CCC(N(CCC)CCC)C2 (stereo not drawn) | 886
CCCCNC(=O)[C@@H](NC(=O)c1ccc(O)c(-c2ccc(Cl)c(Cl)c2)c1)C(C)C | 230
O=C(/C=C/c1ccc(Cl)c(Cl)c1)NCCCCCN1CCCN(C(=O)Nc2ccc([N+](=O)[O-])cc2)CC1 | 615
Cc1cccc2nc(-c3cccc(-c4ccc(CNCCNC(=O)c5ccnn5C)cc4)c3)[nH]c12 | 167
FC(F)(F)c1ccc2c(NCCNc3ccnc4cc(C(F)(F)F)ccc34)ccnc2c1 | 32.7
O=C(NC(c1ccc(Cl)cc1)c1ccc2cccnc2c1O)c1ccccc1 (stereo not drawn) | 558
CCC(ON1C(N)=NC(N)=NC1(C)C)c1ccccc1 (stereo not drawn) | 33.5
COc1ccc(N2CCN(CCCCNC(=O)c3ccc(/C=C/c4ccc(Cl)c(Cl)c4)cc3)CC2)c(OC)c1 | 709

SMILES | XC50 [nM]
CN1CCCN(Cc2cccc(-c3cccc(NS(=O)(=O)c4cccc5cccnc45)c3)c2)CC1 | 764
COc1cc2nc(C)nc(Nc3cccc(Br)c3)c2cc1OC | 356
Cn1nc(-c2cccc(CN[C@@H]3CCc4ccc(O)cc43)c2)c2cnc(NCCCN3CCCC3)nc21 | 831
O=S(=O)(Nc1cccc(CCN2CCCCC2CCN2CCCC2)c1)c1ccc2ccccc2c1 (stereo not drawn) | 1070
COc1cc(OC)c(NC(=O)COc2ccc(C)cc2)cc1Cl | 688
CNc1ccc(CNCc2cccc(-c3ccc(-c4nc5cccc(C)c5[nH]4)s3)c2)cc1 | 987
Cc1ccc(S(=O)(=O)N(C)c2ccccc2C(=O)Nc2ccccc2Oc2ccccc2)cc1 | 919
COc1cc2nc(NCc3ccccc3)nc(NCc3ccccc3)c2cc1OC | 151
CCOC(=O)CCCCOc1c(OC)cc(Cc2cnc(N)nc2N)cc1OC | 29.9
N#Cc1ccc2c(c1)CN(CCC1CCC(NC(=O)c3cc4cnccc4[nH]3)CC1)CC2 (stereo not drawn) | 801
COc1ccc(Nc2nccc(N3CCC(NC(=O)c4cccc(NC(C)=O)c4)C3)n2)cc1 (stereo not drawn) | 994
CCNc1cc(C(=O)N[C@@H](Cc2ccccc2)[C@H](O)CNCCc2ccccc2)cc(N2CCCC2=O)c1 | 844
CC(C)CNC(=O)CN1C(=O)C(c2ccccc2)(c2ccccc2)N=C1N | 815
Clc1ccc2c(NCc3ccc4c(c3)OCO4)ccnc2c1 | 266
Cc1cccc2nc(-c3cccc(-c4ccc(NC(=O)Cc5ccc[n+]([O-])c5)cc4)c3)[nH]c12 | 627
CCC(C)CN1C(=O)C(c2ccccc2)(c2ccccc2)N=C1N (stereo not drawn) | 712
Cc1[nH]c(C)c(-c2ccc(OCc3ccc(OC(F)(F)F)cc3)nc2)c(=O)c1Cl | 70.5
S=C(NCCCCCN1CCC(c2c[nH]c3ccccc23)CC1)Nc1cccc(I)c1 | 845
COC(=O)c1cccc(CNCc2ccc(-c3ccc(-c4nc5ccccc5[nH]4)s3)cc2)c1 | 289
Fc1cc(Cl)ccc1Nc1ccnc2cc(-c3ccc(CNCCN4CCOCC4)o3)ccc12 | 277
O=C(NC1CCN(Cc2ccccc2)CC1)c1cc(-c2cccnc2)nc2ccc(Cl)cc12 | 759
CCc1c[nH]c2c(N3CCCS3(=O)=O)cc(C(=O)N[C@@H](Cc3ccccc3)[C@H](O)CNC(C)(C)c3cccc(C(F)(F)F)c3)cc12 | 228
CC1(C)[C@H]2CC[C@@H](CNc3nc(NCCc4c[nH]cn4)nc(Nc4ccc(Oc5ccccc5)cc4)n3)[C@@H]1C2 | 672
Cc1ccc(-c2nnc(Nc3ccc(C(=O)N4CCCCC4)cc3)c3ccccc23)cc1S(=O)(=O)NCC1CCCO1 (stereo not drawn) | 709
O=C(NC(=O)c1ccccc1)NC1CCN(c2ccnc3cc(Cl)ccc23)C1 (stereo not drawn) | 584

SMILES | XC50 [nM]
O=C(/C=C/c1cccc2ccccc12)NCCCCCN1CCC(c2c[nH]c3ccccc23)CC1 | 1140
COc1cccc(CNC(=O)[C@H]2CNCCN2C(=O)CCCc2ccccc2)c1 | 787
Cc1nc2ccccn2c1C1(O)C(=O)Nc2c(Cl)cc(Cl)cc21 (stereo not drawn) | 1590
COc1ccc2nccc([C@@H](O)CN3CCC(NCc4ccc5cccc(O)c5n4)CC3)c2c1 | 1130
CC(=O)N1N=C(c2ccc(Cl)cc2)Sc2c1nc(C1CCCCC1)n2C(C)=O | 249
COc1ccc(OCC(=O)Nc2cc(-c3nc4ccccc4[nH]3)ccc2Cl)cc1 | 903
COc1ccc(-c2cc(C(=O)Nc3ccc4[nH]c(-c5ccccc5)nc4c3)[nH]n2)cc1 | 696
Cc1cccc2nc(-c3cccc(-c4cccc(C(=O)NCc5nccn5C)c4)c3)[nH]c12 | 528
CC(C)NCc1ccc(-c2cccc(NC(=O)c3ccc(C#N)cc3)c2)cc1 | 740
O=C(Nc1cc(C(F)(F)F)cc(C(F)(F)F)c1)N1CCC(CCN2CCC(c3c[nH]c4ccccc34)CC2)CC1 | 1260
Cc1oc(-c2cccc(Oc3ccccc3)c2)nc1CN(Cc1cnn(C)c1)C(C)C | 1090
Cc1cccc2nc(-c3cccc(-c4ccc(NC(=O)Nc5ccc(F)c(F)c5F)cc4)c3)[nH]c12 | 168
Cc1nc(-c2cccc(Nc3nccc(NCC(O)c4ccc(C(F)(F)F)cc4)n3)c2)cs1 (stereo not drawn) | 511
CCCc1cc(N2CCC(c3ccccc3)(N3CCCCC3)CC2)nc(Nc2ccc(OC)cc2)n1 | 1090
CN1CCN(c2ccnc3ccc(NC(=O)Nc4cccc(C#N)c4)cc23)CC1 | 799
COc1cc2ccccc2cc1CCNCCCCNCCc1cc2ccccc2cc1OC | 403
O=C(Nc1ccc(Cl)cc1)Nc1ccc(-c2cccc(-c3nc4cc(F)ccc4[nH]3)c2)cc1 | 292
O=C(Nc1cccc(CN2CCCN(Cc3ccc(F)cc3)CC2)c1)c1cc2ccccc2s1 | 794
O=C(Nc1ccc(Cl)cc1)c1ccc(S(=O)(=O)NCC2CCN(CC3CCCCC3)CC2)cc1 | 857
CCOC(=O)C1=C(C)NC2=C(C(=O)CC(C)(C)C2)C1c1ccc(Cl)cc1 (stereo not drawn) | 923
Nc1ncc(-c2ccc3nccc(-c4ccncc4)c3c2)cc1S(=O)(=O)N1CCOCC1 | 872
COC(=O)c1ccc(CC(C)NCC(O)c2cccc3ccccc23)cc1 (stereo not drawn) | 935
COc1cc(OCCCN(C)Cc2ccc(OC)c(OC)c2)ccc1NC(=O)c1cccc2c(O)c3cccc(F)c3nc12 | 891
